Results as given in paper PMC4055736, “Functional Characterization of a Novel Family of Acetylcholine-Gated Chloride Channels in Schistosoma mansoni” (PLoS Pathogens, 2014).

Columns and labels:
Type in all cases: cell-based
SmACC-1 [1] = target: T1, SmACC-1 (Schistosoma mansoni, UniProt V5WAE7); test: YFP halide sensor iodide flux assay in transfected HEK-293 cells, […] agonist
T1 construct: gene ACC-1; full-length, human codon-optimized, C-terminal FLAG tag; homomeric channel
T1 sequence (V5WAE7 24-804): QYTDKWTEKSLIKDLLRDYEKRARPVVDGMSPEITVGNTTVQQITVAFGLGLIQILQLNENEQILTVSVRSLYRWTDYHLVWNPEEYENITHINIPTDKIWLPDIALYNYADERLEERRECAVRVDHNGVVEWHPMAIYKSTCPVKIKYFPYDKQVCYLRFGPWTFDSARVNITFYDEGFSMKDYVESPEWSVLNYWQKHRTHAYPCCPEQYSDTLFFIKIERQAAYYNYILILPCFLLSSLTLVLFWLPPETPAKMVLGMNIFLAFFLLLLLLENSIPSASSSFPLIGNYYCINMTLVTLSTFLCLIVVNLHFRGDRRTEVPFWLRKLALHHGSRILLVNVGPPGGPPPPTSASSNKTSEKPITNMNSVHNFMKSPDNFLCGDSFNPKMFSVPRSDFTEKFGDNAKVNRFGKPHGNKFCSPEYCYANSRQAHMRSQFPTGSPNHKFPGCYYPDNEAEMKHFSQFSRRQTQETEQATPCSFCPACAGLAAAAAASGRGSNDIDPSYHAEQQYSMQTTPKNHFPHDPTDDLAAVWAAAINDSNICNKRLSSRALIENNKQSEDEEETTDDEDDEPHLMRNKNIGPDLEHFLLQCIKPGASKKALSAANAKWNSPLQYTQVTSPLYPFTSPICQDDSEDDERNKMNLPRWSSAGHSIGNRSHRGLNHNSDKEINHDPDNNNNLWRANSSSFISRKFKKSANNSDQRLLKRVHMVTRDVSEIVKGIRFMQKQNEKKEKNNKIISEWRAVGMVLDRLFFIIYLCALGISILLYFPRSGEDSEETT

SmACC-1 [2] = target: T1, SmACC-1; test: YFP halide sensor iodide flux assay in transfected HEK-293 cells, dose response (agonist)
SmACC-1 [3] = target: T1, SmACC-1; test: YFP halide sensor iodide flux assay in transfected HEK-293 cells; block of […] nicotine response by […] antagonist

Row | SMILES | YFP halide sensor iodide flux assay in transfected HEK-293 cells, 100 μM agonist (SmACC-1 [1]) | also measured
1 | C[N+](C)(C)CCO [choline] | statistically significant responses were also seen with other cholinergic agonists (ACh, choline chloride, carbachol and arecoline) | –
2 | C[N+](C)(C)CCOC(N)=O [carbachol] | statistically significant responses were also seen with other cholinergic agonists (ACh, choline chloride, carbachol and arecoline) | –
3 | COC(=O)C1=CCCN(C)C1 [arecoline] | statistically significant responses were also seen with other cholinergic agonists (ACh, choline chloride, carbachol and arecoline) | –
4 | CN1CCC[C@H]1c1cccnc1 [nicotine] | – | EC50 (SmACC-1 [2]): 4.3 ± 1.4 µM
5 | COc1cc2c3cc1Oc1cc(ccc1O)C[C@@H]1c4c(cc(OC)c(O)c4Oc4ccc(cc4)C[C@@H]3N(C)CC2)CC[N+]1(C)C [D-tubocurarine] | – | YFP halide sensor iodide flux assay in transfected HEK-293 cells; block of 100 μ (SmACC-1 [3]): only D-tubocurarine was able to significantly block the activation of SmACC-1 by nicotine
